This is an account of results in patent US9340590B2 (priority 2011, dated 2016).

Read-outs that look alike come from different tables or passages of the source. Positions of bridges follow the written chain, without caps; N, C: chain ends. Residues, ends and D or L forms follow the SMILES beside them.

One assay concerns the target hNav1.3 (Homo sapiens, UniProt Q9NY46). The assay can be described thus: cell-based. Conditions: IonWorks Quattro, read-out: IWQ Use Nav1.3.
Another assay concerns the target hNav1.5 (Homo sapiens, UniProt Q14524). The assay can be described thus: cell-based.
[1] abbreviates: clamped to −110 mV, depolarized to −10 mV, 5 min after compound, n=2.
Setting [2] is: IonWorks Quattro, clamped to −110 mV, depolarized to −10 mV, 5 min after compound, n=2, read-out: IWQ Use Nav1.5.

Chain of hNav1.5 (Q14524 whole entry, looked up): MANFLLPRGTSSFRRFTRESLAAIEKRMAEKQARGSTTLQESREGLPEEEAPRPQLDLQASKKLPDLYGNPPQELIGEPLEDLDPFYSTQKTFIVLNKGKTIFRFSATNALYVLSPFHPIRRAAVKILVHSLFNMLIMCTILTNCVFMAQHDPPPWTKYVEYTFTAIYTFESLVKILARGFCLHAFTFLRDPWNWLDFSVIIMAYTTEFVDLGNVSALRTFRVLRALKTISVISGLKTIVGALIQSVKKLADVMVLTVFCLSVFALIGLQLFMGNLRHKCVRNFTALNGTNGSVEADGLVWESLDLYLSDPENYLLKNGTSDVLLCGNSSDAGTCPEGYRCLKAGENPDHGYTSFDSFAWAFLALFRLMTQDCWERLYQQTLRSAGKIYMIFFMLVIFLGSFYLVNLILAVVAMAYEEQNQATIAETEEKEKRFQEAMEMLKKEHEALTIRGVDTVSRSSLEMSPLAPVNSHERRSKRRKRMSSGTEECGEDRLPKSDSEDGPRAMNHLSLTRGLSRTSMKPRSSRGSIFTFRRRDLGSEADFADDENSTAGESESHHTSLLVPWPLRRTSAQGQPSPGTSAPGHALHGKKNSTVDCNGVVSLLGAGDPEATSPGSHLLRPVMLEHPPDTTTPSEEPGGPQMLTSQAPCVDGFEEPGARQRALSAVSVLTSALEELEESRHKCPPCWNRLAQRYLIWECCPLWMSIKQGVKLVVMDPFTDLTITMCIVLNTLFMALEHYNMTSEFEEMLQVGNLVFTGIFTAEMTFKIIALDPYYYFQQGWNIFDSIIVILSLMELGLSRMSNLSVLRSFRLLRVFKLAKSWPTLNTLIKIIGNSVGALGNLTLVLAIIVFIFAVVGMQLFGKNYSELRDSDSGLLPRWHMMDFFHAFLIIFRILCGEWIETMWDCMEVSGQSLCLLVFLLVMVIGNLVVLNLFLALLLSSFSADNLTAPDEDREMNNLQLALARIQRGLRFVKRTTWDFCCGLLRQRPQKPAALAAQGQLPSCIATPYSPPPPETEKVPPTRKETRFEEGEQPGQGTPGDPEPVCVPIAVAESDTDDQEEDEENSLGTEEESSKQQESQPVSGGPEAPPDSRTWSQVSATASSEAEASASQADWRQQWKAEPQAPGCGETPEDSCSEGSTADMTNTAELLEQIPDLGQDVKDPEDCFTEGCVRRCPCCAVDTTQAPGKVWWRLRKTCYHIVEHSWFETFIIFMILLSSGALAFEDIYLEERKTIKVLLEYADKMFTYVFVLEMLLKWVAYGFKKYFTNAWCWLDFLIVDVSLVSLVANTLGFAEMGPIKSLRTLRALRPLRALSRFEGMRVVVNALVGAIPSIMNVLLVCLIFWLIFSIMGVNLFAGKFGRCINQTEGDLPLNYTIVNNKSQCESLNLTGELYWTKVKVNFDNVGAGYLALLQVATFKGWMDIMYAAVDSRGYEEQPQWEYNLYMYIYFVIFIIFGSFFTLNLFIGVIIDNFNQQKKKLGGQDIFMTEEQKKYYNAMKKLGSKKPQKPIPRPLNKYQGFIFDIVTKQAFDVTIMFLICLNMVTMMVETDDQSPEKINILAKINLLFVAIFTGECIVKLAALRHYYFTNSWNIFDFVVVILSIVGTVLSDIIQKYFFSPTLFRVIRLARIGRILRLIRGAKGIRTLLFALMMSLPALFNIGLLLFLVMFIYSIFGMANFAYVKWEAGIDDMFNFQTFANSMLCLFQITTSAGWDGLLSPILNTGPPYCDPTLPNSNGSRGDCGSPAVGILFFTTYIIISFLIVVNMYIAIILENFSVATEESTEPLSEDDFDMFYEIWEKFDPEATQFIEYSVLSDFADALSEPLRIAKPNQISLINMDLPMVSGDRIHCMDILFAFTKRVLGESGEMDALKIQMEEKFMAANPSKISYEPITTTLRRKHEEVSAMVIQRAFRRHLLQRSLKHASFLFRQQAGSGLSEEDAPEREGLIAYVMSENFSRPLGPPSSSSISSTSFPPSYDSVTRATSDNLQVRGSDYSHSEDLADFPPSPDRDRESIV
Chain of hNav1.3 (Q9NY46 whole entry, looked up): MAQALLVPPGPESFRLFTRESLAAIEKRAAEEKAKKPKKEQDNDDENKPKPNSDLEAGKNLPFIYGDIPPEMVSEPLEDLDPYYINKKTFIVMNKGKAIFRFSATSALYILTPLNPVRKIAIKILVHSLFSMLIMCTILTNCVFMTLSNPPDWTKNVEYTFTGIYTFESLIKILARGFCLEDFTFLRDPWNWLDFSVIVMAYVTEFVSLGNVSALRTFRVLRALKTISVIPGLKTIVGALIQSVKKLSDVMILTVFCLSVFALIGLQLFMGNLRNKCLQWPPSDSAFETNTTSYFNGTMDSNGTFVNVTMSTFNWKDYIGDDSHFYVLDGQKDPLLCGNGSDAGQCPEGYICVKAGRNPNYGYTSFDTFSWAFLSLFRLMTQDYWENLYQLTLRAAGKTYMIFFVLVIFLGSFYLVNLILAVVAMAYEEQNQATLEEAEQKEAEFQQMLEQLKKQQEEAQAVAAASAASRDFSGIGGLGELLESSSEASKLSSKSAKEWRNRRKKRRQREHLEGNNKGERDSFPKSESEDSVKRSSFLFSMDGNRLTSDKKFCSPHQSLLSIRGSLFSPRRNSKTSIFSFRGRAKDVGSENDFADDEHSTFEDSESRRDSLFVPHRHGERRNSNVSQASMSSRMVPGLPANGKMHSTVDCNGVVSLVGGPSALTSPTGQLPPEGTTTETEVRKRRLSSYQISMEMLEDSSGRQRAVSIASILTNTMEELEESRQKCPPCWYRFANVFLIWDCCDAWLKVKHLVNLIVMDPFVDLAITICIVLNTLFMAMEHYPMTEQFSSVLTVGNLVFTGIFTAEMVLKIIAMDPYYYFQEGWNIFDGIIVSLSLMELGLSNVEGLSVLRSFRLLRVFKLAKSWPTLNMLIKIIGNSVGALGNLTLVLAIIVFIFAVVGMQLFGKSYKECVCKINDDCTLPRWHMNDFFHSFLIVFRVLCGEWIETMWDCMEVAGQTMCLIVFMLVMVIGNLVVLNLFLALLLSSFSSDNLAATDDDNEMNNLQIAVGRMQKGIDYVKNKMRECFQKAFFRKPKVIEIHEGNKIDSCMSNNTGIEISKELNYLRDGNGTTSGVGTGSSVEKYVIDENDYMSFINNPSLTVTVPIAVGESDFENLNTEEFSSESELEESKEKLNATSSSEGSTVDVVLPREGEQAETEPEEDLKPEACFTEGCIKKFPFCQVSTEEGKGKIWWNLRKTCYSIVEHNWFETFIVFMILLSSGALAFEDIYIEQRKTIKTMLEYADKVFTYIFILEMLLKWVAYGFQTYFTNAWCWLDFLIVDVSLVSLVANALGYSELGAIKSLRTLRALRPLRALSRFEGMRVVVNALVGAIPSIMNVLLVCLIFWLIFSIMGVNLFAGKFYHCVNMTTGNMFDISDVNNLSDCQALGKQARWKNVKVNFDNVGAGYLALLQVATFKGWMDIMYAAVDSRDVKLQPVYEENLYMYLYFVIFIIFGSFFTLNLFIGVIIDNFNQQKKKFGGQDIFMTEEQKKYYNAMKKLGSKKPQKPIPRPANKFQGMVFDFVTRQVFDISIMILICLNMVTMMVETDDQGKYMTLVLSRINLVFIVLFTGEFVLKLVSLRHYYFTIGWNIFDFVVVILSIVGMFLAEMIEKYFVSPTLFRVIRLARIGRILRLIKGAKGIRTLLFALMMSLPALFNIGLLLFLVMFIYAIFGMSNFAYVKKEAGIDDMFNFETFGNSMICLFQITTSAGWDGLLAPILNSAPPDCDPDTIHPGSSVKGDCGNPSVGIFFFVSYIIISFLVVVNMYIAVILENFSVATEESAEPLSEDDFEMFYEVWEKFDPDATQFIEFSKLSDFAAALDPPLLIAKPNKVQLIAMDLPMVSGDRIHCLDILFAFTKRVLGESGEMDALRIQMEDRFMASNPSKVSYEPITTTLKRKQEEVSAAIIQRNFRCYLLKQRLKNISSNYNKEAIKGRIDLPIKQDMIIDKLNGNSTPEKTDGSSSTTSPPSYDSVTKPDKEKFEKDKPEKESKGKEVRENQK

Consider `CSCC[C@@H]1NC(=O)[C@H](Cc2ccccc2)NC(=O)CNC(=O)[C@H](CC(C)C)NC(=O)[C@@H](NC(=O)[C@@H](N)CC(=O)O)CSSC[C@@H]2NC(=O)[C@@H]3CSSC[C@@H](C(=O)N[C@@H](CCCCN)C(=O)N[C@@H](Cc4ccc(O)cc4)C(=O)N[C@H](C(=O)N[C@@H](Cc4ccccc4)C(N)=O)C(C)C)NC(=O)[C@H](Cc4c[nH]c5ccccc45)NC(=O)[C@H](CCCCN)NC(=O)[C@H](Cc4cnc[nH]4)NC(=O)[C@H]([C@@H](C)O)NC(=O)[C@H](CCCNC(=N)N)NC(=O)[C@H](CO)NC(=O)[C@H](CSSC[C@H](NC(=O)[C@H](CCCCN)NC(=O)[C@H](CCCNC(=N)N)NC1=O)C(=O)N[C@@H](CCC(=O)O)C(=O)N1CCC[C@H]1C(=O)N[C@@H](CC(=O)O)C(=O)N[C@@H](CC(N)=O)C(=O)N[C@@H](CC(=O)O)C(=O)N[C@@H](CCCCN)C(=O)N3)NC(=O)[C@H](C(C)C)NC(=O)[C@H](CC(C)C)NC(=O)[C@H](CC(N)=O)NC(=O)[C@@H]1CCCN1C(=O)[C@H](CCCNC(=N)N)NC2=O` [SEQ ID NO: 146, [Glu10]GpTx-1] (H-DCLGFMRKCEPDNDKCCRPNLVCSRTHKWCKYVF-NH2; disulfide 2-17, 9-23, 16-30), for which the IC50 is 0.15 µM at hNav1.3 (Use) and 9.55 µM at hNav1.5 (IonWorks Quattro, Use, read-out: IWQ Use Nav1.5).

For `CC[C@H](C)[C@@H]1NC(=O)[C@@H]2CSSC[C@@H]3NC(=O)[C@H](C(C)C)NC(=O)[C@H](CC(C)C)NC(=O)[C@H](CC(N)=O)NC(=O)[C@@H]4CCCN4C(=O)[C@H](CCCNC(=N)N)NC(=O)[C@H](CSSC[C@H](NC(=O)[C@@H](N)CC(=O)O)C(=O)N[C@@H](CC(C)C)C(=O)NCC(=O)N[C@@H](Cc4ccccc4)C(=O)N[C@@H](CCSC)C(=O)N[C@@H](CCCNC(=N)N)C(=O)N[C@@H](CCCCN)C(=O)N2)NC(=O)[C@H](CSSC[C@@H](C(=O)N[C@@H](CCCCN)C(=O)N[C@@H](Cc2ccc(O)cc2)C(=O)N[C@H](C(=O)N[C@@H](Cc2ccccc2)C(N)=O)C(C)C)NC(=O)[C@H](Cc2c[nH]c4ccccc24)NC(=O)[C@H](CCCCN)NC(=O)[C@H](Cc2cnc[nH]2)NC(=O)[C@H]([C@@H](C)O)NC(=O)[C@H](CCCNC(=N)N)NC(=O)[C@H](CO)NC3=O)NC(=O)[C@H](CCCCN)NC(=O)[C@H](CC(=O)O)NC(=O)[C@H](CC(N)=O)NC(=O)[C@H](CC(=O)O)NC(=O)[C@H](CCC(=O)O)NC1=O` [SEQ ID NO: 147, [Glu11]GpTx-1] (H-DCLGFMRKCIEDNDKCCRPNLVCSRTHKWCKYVF-NH2; disulfide 2-17, 9-23, 16-30), the figures for the IC50 at hNav1.3 (Use) and against hNav1.5 (IWQ Use Nav1.5 (μM)) were 0.21 µM and 15.6 µM, respectively.

On to `CC[C@H](C)[C@@H]1NC(=O)[C@@H]2CSSC[C@@H]3NC(=O)[C@H](C(C)C)NC(=O)[C@H](CC(C)C)NC(=O)[C@H](CC(N)=O)NC(=O)[C@@H]4CCCN4C(=O)[C@H](CCCNC(=N)N)NC(=O)[C@H](CSSC[C@H](NC(=O)[C@@H](N)CC(=O)O)C(=O)N[C@@H](CCCNC(=N)N)C(=O)NCC(=O)N[C@@H](Cc4ccccc4)C(=O)N[C@@H](CCSC)C(=O)N[C@@H](CCCNC(=N)N)C(=O)N[C@@H](CCCCN)C(=O)N2)NC(=O)[C@H](CSSC[C@@H](C(=O)N[C@@H](CCCCN)C(=O)N[C@@H](Cc2ccc(O)cc2)C(=O)N[C@H](C(=O)N[C@@H](Cc2ccccc2)C(N)=O)C(C)C)NC(=O)[C@H](Cc2c[nH]c4ccccc24)NC(=O)[C@H](CCCCN)NC(=O)[C@H](Cc2cnc[nH]2)NC(=O)[C@H]([C@@H](C)O)NC(=O)[C@H](CCCNC(=N)N)NC(=O)[C@H](CO)NC3=O)NC(=O)[C@H](CCCCN)NC(=O)[C@H](CC(=O)O)NC(=O)[C@H](CC(N)=O)NC(=O)[C@H](CC(=O)O)NC(=O)[C@@H]2CCCN2C1=O` [SEQ ID NO: 155] (H-DCRGFMRKCIPDNDKCCRPNLVCSRTHKWCKYVF-NH2; disulfide 2-17, 9-23, 16-30), for which the IC50 came out at 0.05 µM at hNav1.3 (setting [1]) and 8.45 µM at hNav1.5 (setting [2]).

On to `CC[C@H](C)[C@@H]1NC(=O)[C@@H]2CSSC[C@@H]3NC(=O)[C@H](C(C)C)NC(=O)[C@H](CC(C)C)NC(=O)[C@H](CC(N)=O)NC(=O)[C@@H]4CCCN4C(=O)[C@H](CCCNC(=N)N)NC(=O)[C@H](CSSC[C@H](NC(=O)[C@@H](N)CC(=O)O)C(=O)N[C@@H](CC(C)C)C(=O)NCC(=O)N[C@@H](CCCNC(=N)N)C(=O)N[C@@H](CCSC)C(=O)N[C@@H](CCCNC(=N)N)C(=O)N[C@@H](CCCCN)C(=O)N2)NC(=O)[C@H](CSSC[C@@H](C(=O)N[C@@H](CCCCN)C(=O)N[C@@H](Cc2ccc(O)cc2)C(=O)N[C@H](C(=O)N[C@@H](Cc2ccccc2)C(N)=O)C(C)C)NC(=O)[C@H](Cc2c[nH]c4ccccc24)NC(=O)[C@H](CCCCN)NC(=O)[C@H](Cc2cnc[nH]2)NC(=O)[C@H]([C@@H](C)O)NC(=O)[C@H](CCCNC(=N)N)NC(=O)[C@H](CO)NC3=O)NC(=O)[C@H](CCCCN)NC(=O)[C@H](CC(=O)O)NC(=O)[C@H](CC(N)=O)NC(=O)[C@H](CC(=O)O)NC(=O)[C@@H]2CCCN2C1=O` [SEQ ID NO: 156] (H-DCLGRMRKCIPDNDKCCRPNLVCSRTHKWCKYVF-NH2; disulfide 2-17, 9-23, 16-30), for which the IC50 at hNav1.3 (setting [1]) turned out to be 4.09 µM; on hNav1.5 (setting [2]), 12.6 µM.

Consider `CC[C@H](C)[C@@H]1NC(=O)[C@@H]2CSSC[C@@H]3NC(=O)[C@H](C(C)C)NC(=O)[C@H](CC(C)C)NC(=O)[C@H](CC(N)=O)NC(=O)[C@@H]4CCCN4C(=O)[C@H](CCCNC(=N)N)NC(=O)[C@H](CSSC[C@H](NC(=O)[C@@H](N)CC(=O)O)C(=O)N[C@@H](CC(C)C)C(=O)N[C@@H](Cc4c[nH]c5ccccc45)C(=O)N[C@@H](Cc4ccccc4)C(=O)N[C@@H](CCSC)C(=O)N[C@@H](CCCNC(=N)N)C(=O)N[C@@H](CCCCN)C(=O)N2)NC(=O)[C@H](CSSC[C@@H](C(=O)N[C@@H](CCCCN)C(=O)N[C@@H](Cc2ccc(O)cc2)C(=O)N[C@H](C(=O)N[C@@H](Cc2ccccc2)C(N)=O)C(C)C)NC(=O)[C@H](Cc2c[nH]c4ccccc24)NC(=O)[C@H](CCCCN)NC(=O)[C@H](Cc2cnc[nH]2)NC(=O)[C@H]([C@@H](C)O)NC(=O)[C@H](CCCNC(=N)N)NC(=O)[C@H](CO)NC3=O)NC(=O)[C@H](CCCCN)NC(=O)[C@H](CC(=O)O)NC(=O)[C@H](CC(N)=O)NC(=O)[C@H](CC(=O)O)NC(=O)[C@@H]2CCCN2C1=O` [SEQ ID NO: 169] (H-DCLWFMRKCIPDNDKCCRPNLVCSRTHKWCKYVF-NH2; disulfide 2-17, 9-23, 16-30), for which the IC50 at hNav1.3 (setting [1]) was 0.03 µM; at hNav1.5 (setting [2]), 10.3 µM.

As to `CC[C@H](C)[C@@H]1NC(=O)[C@@H]2CSSC[C@@H]3NC(=O)[C@H](C(C)C)NC(=O)[C@H](CC(C)C)NC(=O)[C@H](CC(N)=O)NC(=O)[C@@H]4CCCN4C(=O)[C@H](CCCNC(=N)N)NC(=O)[C@H](CSSC[C@H](NC(=O)[C@@H](N)CC(=O)O)C(=O)N[C@@H](CC(C)C)C(=O)NCC(=O)N[C@@H](Cc4ccccc4)C(=O)N[C@@H](CCSC)C(=O)N[C@@H](C)C(=O)N[C@@H](CCCCN)C(=O)N2)NC(=O)[C@H](CSSC[C@@H](C(=O)N[C@@H](CCCCN)C(=O)N[C@@H](Cc2ccc(O)cc2)C(=O)N[C@H](C(=O)N[C@@H](Cc2ccccc2)C(N)=O)C(C)C)NC(=O)[C@H](Cc2c[nH]c4ccccc24)NC(=O)[C@H](CCCCN)NC(=O)[C@H](Cc2cnc[nH]2)NC(=O)[C@H]([C@@H](C)O)NC(=O)[C@H](CCCNC(=N)N)NC(=O)[C@H](CO)NC3=O)NC(=O)[C@H](CCCCN)NC(=O)[C@H](CC(=O)O)NC(=O)[C@H](CC(N)=O)NC(=O)[C@H](CC(=O)O)NC(=O)[C@@H]2CCCN2C1=O` [[Ala7]GpTx-1(1-34)] (H-DCLGFMAKCIPDNDKCCRPNLVCSRTHKWCKYVF-NH2; disulfide 2-17, 9-23, 16-30), the IC50 came out at 0.83 µM at hNav1.3 (use-dependent block, hNav1.3) and 21.5 µM on hNav1.5 (IonWorks Quattro, use-dependent block, hNav1.5, read-out: IWQ Use Nav1.5).

For `CC[C@H](C)[C@@H]1NC(=O)[C@@H]2CSSC[C@@H]3NC(=O)[C@H](C(C)C)NC(=O)[C@H](CC(C)C)NC(=O)[C@H](CC(N)=O)NC(=O)[C@@H]4CCCN4C(=O)[C@H](CCCNC(=N)N)NC(=O)[C@H](CSSC[C@H](NC(=O)[C@@H](N)CC(=O)O)C(=O)N[C@@H](CC(C)C)C(=O)NCC(=O)N[C@@H](Cc4ccccc4)C(=O)N[C@@H](CCSC)C(=O)N[C@@H](CCCNC(=N)N)C(=O)N[C@@H](CCC(=O)O)C(=O)N2)NC(=O)[C@H](CSSC[C@@H](C(=O)N[C@@H](CCCCN)C(=O)N[C@@H](Cc2ccc(O)cc2)C(=O)N[C@H](C(=O)N[C@@H](Cc2ccccc2)C(N)=O)C(C)C)NC(=O)[C@H](Cc2c[nH]c4ccccc24)NC(=O)[C@H](CCCCN)NC(=O)[C@H](Cc2cnc[nH]2)NC(=O)[C@H]([C@@H](C)O)NC(=O)[C@H](CCCNC(=N)N)NC(=O)[C@H](CO)NC3=O)NC(=O)[C@H](CCCCN)NC(=O)[C@H](CC(=O)O)NC(=O)[C@H](CC(N)=O)NC(=O)[C@H](CC(=O)O)NC(=O)[C@@H]2CCCN2C1=O` [[Glu8]GpTx-1(1-34)] (H-DCLGFMRECIPDNDKCCRPNLVCSRTHKWCKYVF-NH2; disulfide 2-17, 9-23, 16-30), the IC50 at hNav1.3 (use-dependent block, hNav1.3) came out at 1.36 µM; on hNav1.5 (IWQ Use Nav1.5 (μM)), 24.9 µM.
